What was measured:
Assay type in all cases: functional
Echinochloa crus-galli = assay: Herbicidal activity against barnyard grass (Echinochloa crusgalli L. Beauv.) as the dose required for 50% control
Panicum virgatum = assay: Herbicidal activity against Switch grass (Panicum virgatum L.) as the dose required for 50% control
Setaria viridis = assay: Herbicidal activity against green foxtail (Setaria viridis L. Beauv.) as the dose required for 50% control

SMILES	-Log ED50 (Echinochloa crus-galli)	-Log ED50 (Panicum virgatum)	-Log ED50 (Setaria viridis)
CC(C)c1ccc(C(C)C)c(C(C)S(=O)(=O)c2cccc[n+]2[O-])c1 (centres undefined)	0.78 M acre-1	0.19 M acre-1	0.19 M acre-1
CCc1ccc(CC)c(C(C)S(=O)(=O)c2cccc[n+]2[O-])c1 (centres undefined)	1.15 M acre-1	1.15 M acre-1	1.05 M acre-1
Cc1ccc(C(C)S(=O)(=O)c2cccc[n+]2[O-])cc1C (centres undefined)	1.31 M acre-1	1.24 M acre-1	1.07 M acre-1
CC(c1cc(Cl)ccc1Cl)S(=O)(=O)c1cccc[n+]1[O-] (centres undefined)	1.07 M acre-1	1.07 M acre-1	0.86 M acre-1
CCCCOc1cccc(CS(=O)(=O)c2cccc[n+]2[O-])c1	0.15 M acre-1	-0.15 M acre-1	-0.15 M acre-1
CC(c1ccc(Cl)cc1)S(=O)(=O)c1cccc[n+]1[O-] (centres undefined)	0.9 M acre-1	1.14 M acre-1	0.82 M acre-1
COc1ccc(C)cc1CS(=O)(=O)c1cccc[n+]1[O-]	1.02 M acre-1	0.73 M acre-1	0.41 M acre-1
N#Cc1ccccc1CS(=O)(=O)c1cccc[n+]1[O-]	0.18 M acre-1	-0.22 M acre-1	-0.01 M acre-1
Cc1ccc(C(C)C)cc1C(C)S(=O)(=O)c1cccc[n+]1[O-] (centres undefined)	0.89 M acre-1	0.7 M acre-1	0.57 M acre-1
O=S(=O)(Cc1c(Cl)ccc(Cl)c1Cl)c1cccc[n+]1[O-]	0.81 M acre-1	0.81 M acre-1	0.49 M acre-1
CC(C)c1ccc(C(C)C)c(CS(=O)(=O)c2cccc[n+]2[O-])c1	-0.02 M acre-1	-0.02 M acre-1	-0.02 M acre-1
CC(c1cc(C(F)(F)F)ccc1Cl)S(=O)(=O)c1cccc[n+]1[O-] (centres undefined)	0.91 M acre-1	1.26 M acre-1	0.63 M acre-1
COc1ccc(Br)c(CS(=O)(=O)c2cccc[n+]2[O-])c1	0.6 M acre-1	0.95 M acre-1	0.5 M acre-1
CC(c1cc(F)ccc1F)S(=O)(=O)c1cccc[n+]1[O-] (centres undefined)	1.22 M acre-1	1.22 M acre-1	1.17 M acre-1
Cc1ccc(C(F)(F)F)cc1C(C)S(=O)(=O)c1cccc[n+]1[O-] (centres undefined)	0.79 M acre-1	1.09 M acre-1	1.09 M acre-1
CC(c1cccc(Cl)c1F)S(=O)(=O)c1cccc[n+]1[O-] (centres undefined)	1.36 M acre-1	1.24 M acre-1	1.05 M acre-1
COc1cc(CS(=O)(=O)c2cccc[n+]2[O-])cc(OC)c1OC	-0.77 M acre-1	-0.77 M acre-1	-0.79 M acre-1
O=S(=O)(Cc1ccc(-c2ccccc2)cc1)c1cccc[n+]1[O-]	-0.69 M acre-1	-0.19 M acre-1	-0.54 M acre-1
Cc1c(Cl)ccc(C(C)S(=O)(=O)c2cccc[n+]2[O-])c1Cl (centres undefined)	0.68 M acre-1	1 M acre-1	0.89 M acre-1

SMILES	-Log ED50 (Echinochloa crus-galli)	-Log ED50 (Panicum virgatum)	-Log ED50 (Setaria viridis)
O=S(=O)(Cc1ccccc1Oc1ccccc1)c1cccc[n+]1[O-]	-0.12 M acre-1	0.11 M acre-1	-0.03 M acre-1
CC(C)c1ccc(CS(=O)(=O)c2cccc[n+]2[O-])cc1	-0.1 M acre-1	0.62 M acre-1	-0.1 M acre-1
O=S(=O)(Cc1cccc(Br)c1)c1cccc[n+]1[O-]	0.16 M acre-1	0.03 M acre-1	-0.14 M acre-1
COc1ccc(CS(=O)(=O)c2cccc[n+]2[O-])cc1OC	0.13 M acre-1	0.23 M acre-1	-0.01 M acre-1
CC(c1cccc(C(F)(F)F)c1)S(=O)(=O)c1cccc[n+]1[O-] (centres undefined)	0.46 M acre-1	1.37 M acre-1	0.77 M acre-1
O=S(=O)(Cc1ccccc1F)c1cccc[n+]1[O-]	0.37 M acre-1	0.77 M acre-1	0.07 M acre-1
O=S(=O)(Cc1ccccc1Cl)c1cccc[n+]1[O-]	0.85 M acre-1	0.4 M acre-1	0.43 M acre-1
CC(c1ccc(S(C)(=O)=O)cc1)S(=O)(=O)c1cccc[n+]1[O-] (centres undefined)	-0.43 M acre-1	-0.35 M acre-1	-0.43 M acre-1
Cc1ccc(C)c(C(C)S(=O)(=O)c2cccc[n+]2[O-])c1 (centres undefined)	1.3 M acre-1	1.25 M acre-1	1.25 M acre-1
Cc1ccc(C)c(CS(=O)(=O)c2cccc[n+]2[O-])c1	1.09 M acre-1	0.99 M acre-1	0.39 M acre-1
O=S(=O)(Cc1ccccc1I)c1cccc[n+]1[O-]	0.52 M acre-1	0.32 M acre-1	0.22 M acre-1
CC(c1c(F)cccc1Cl)S(=O)(=O)c1cccc[n+]1[O-] (centres undefined)	1.35 M acre-1	1.65 M acre-1	1.35 M acre-1
CC(c1ccc([N+](=O)[O-])cc1)S(=O)(=O)c1cccc[n+]1[O-] (centres undefined)	0.43 M acre-1	0.43 M acre-1	0.23 M acre-1
Cc1ccc(C)c(CS(=O)(=O)c2cccc[n+]2[O-])c1C	0.7 M acre-1	0.7 M acre-1	0.7 M acre-1
O=S(=O)(Cc1ccccc1)c1cccc[n+]1[O-]	0.29 M acre-1	0.04 M acre-1	0.14 M acre-1
O=S(=O)(Cc1c(Cl)cccc1Cl)c1cccc[n+]1[O-]	0.96 M acre-1	0.74 M acre-1	0.74 M acre-1
Cc1ccccc1C(C)S(=O)(=O)c1cccc[n+]1[O-] (centres undefined)	1.58 M acre-1	1.29 M acre-1	1.29 M acre-1
Cc1ccc(Cl)c(C(C)S(=O)(=O)c2cccc[n+]2[O-])c1 (centres undefined)	1.35 M acre-1	0.82 M acre-1	0.66 M acre-1
Cc1cc(Cl)ccc1C(C)S(=O)(=O)c1cccc[n+]1[O-] (centres undefined)	0.84 M acre-1	0.98 M acre-1	0.79 M acre-1
